Values joined by “and” are separate entries in the source; they are usually repeats but may differ in a detail not shown here. Equal entries are not always repeated. Marks after values point to notes of the source that are not given here.

These results are taken from patent publication US20260124170A1, “PHARMACEUTICAL COMPOSITION COMPRISING METABOLITE OF ENAVOGLIFLOZIN, AND USE THEREOF” (DAEWOONG PHARMACEUTICAL CO., LTD., priority 2022, published 2026).

The target of test [1] is T1, SGLT1 (Homo sapiens, UniProt P13866).
T1 construct: expressed in transfected cells
T1 sequence (P13866 1-664): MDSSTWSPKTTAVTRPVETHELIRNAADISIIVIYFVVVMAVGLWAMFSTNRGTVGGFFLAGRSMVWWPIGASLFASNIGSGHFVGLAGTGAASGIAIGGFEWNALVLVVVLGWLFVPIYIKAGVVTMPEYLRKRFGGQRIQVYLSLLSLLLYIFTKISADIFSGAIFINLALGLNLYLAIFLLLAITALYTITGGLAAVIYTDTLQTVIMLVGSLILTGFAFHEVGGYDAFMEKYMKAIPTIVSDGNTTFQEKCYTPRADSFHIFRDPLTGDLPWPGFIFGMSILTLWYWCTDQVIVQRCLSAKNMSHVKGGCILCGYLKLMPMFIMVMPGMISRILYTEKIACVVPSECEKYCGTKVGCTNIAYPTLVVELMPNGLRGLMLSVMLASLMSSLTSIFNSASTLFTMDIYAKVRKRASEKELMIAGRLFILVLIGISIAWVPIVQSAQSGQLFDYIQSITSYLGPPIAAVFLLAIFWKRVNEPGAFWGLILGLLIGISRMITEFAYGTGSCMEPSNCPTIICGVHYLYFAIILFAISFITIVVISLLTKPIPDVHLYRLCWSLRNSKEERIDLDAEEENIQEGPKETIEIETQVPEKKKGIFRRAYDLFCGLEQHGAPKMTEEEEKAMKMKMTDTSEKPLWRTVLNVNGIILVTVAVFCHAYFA
As to the kind of experiment: Whole-cell patch clamp glucose current, binding and dissociation, CHO-SGLT1. Particulars: for Dissociation degree T1/2, off (s), SGLT1: washout. The class given is cell-based. How it is done: (§1) When SGLT1- and SGLT2-overexpressing cell lines (CHO-SGLT1, CHO-SGLT2 stable cells) were cultured to reach 60% confluency, the cells were treated with 0.05% trypsin to detach the cells from the bottom of the plate, suspended in 200 μL of culture medium, and used at room temperature.
(§2) Glucose reabsorption is induced by the Na^+ electrochemical potential gradient in the kidneys via SGLT2, and glucose diffuses across the cell membrane into the blood via glucose transporter 2 (GLUT-2), which enables facilitated glucose transport. While one Na^+ ion is absorbed per glucose molecule through SGLT2, two Nations are absorbed per glucose molecule through SGLT1. Therefore, by varying the composition of the buffer, only the glucose current was recorded, excluding the Na^+ current.
(§3) The experiment was conducted as described below.
(§4) 1) Using a Narishige puller, a glass micropipette was made in two stages of 62.7° C. and 57° C., filled with an internal solution (145 mM CsCl, 5 mM NaCl, 10 mM HEPES, 11 mM ethylene glycol-bis(2-aminoethylether)-N,N,N′,N′-tetraacetic acid (EGTA), pH 7.2), and then inserted into the Ag/AgCl2 electrode of the patch clamp head-stage.
(§5) 2) SGLT1 or SGLT2 cells were seeded on a chamber which was coated with poly-L-lysine in advance, and then an external solution (150 mM NaCl, 10 mM HEPES, 1 mM CaCl2), 1 mM MgCl2, pH 7.4) was flowed to ensure that the cells were sufficiently submerged. A temperature control device was used to maintain the temperature of the chamber at 36.5±0.5° C.
(§6) 3) Using a micromanipulator, the glass micropipette was attached to the cell membrane to create a giga-ohm seal, which was then ruptured to detach the cell membrane (whole-cell mode, 3 to 5 MΩ).
(§7) 4) The cells were fixed at −60 mV (holding potential), and the current [I^total current (Na^+/Glucose current (pA))] was measured in a gap-free data acquisition mode.
(§8) 5) The external solution was continuously flowed into the chamber containing the cells, and the current (I^total) was recorded for about 30 seconds to 1 minute (stabilization), and then the external solution with added glucose (Na^+/Glucose external) (150 mM NaCl, 10 mM HEPES, 1 mM CaCl2), 1 mM MgCl2, 100 mM glucose, pH 7.4) was flowed to record the glucose current (I^glucose). Then, the cells were exposed to the external solution with added glucose containing one concentration of the compound for two minutes, and the glucose current suppressed by the compound was recorded.
(§9) 7) After confirming the recovery of the current, the solution was replaced with a sodium-free external solution (Na^+-free external) (150 mM Choline-Cl, 1 mM CaCl2), 1 mM MgCl2, pH 7.4) and the Na^+ current was recorded. After the current was stabilized, the solution was replaced with the external solution to record the current in the resting state when the cells were not stimulated, thereby securing the reliability of the experimental system.
(§10) For statistical analysis of data, pCLAMP10.4 (Molecular Devices, LLC, San Jose, CA, USA) or Origin6.0 (OriginLab, Northampton, MA, USA) was used.
(§11) The test results were expressed as the mean±SD of the mean. Statistical significance was verified using the nonparametric Kruskal-Wallis test using Statistical Package for the Social Sciences (SPSS) for Windows (version 26.0, IBM Corp., Armonk, NY, USA). The significance level was set at p<0.05.
On the technique in general: The patch-clamp technique gives a direct electrical read-out from membranes.

The target of test [2] is T2, SGLT2 (Homo sapiens, UniProt P31639).
T2 construct: expressed in transfected cells
T2 sequence (P31639 1-672): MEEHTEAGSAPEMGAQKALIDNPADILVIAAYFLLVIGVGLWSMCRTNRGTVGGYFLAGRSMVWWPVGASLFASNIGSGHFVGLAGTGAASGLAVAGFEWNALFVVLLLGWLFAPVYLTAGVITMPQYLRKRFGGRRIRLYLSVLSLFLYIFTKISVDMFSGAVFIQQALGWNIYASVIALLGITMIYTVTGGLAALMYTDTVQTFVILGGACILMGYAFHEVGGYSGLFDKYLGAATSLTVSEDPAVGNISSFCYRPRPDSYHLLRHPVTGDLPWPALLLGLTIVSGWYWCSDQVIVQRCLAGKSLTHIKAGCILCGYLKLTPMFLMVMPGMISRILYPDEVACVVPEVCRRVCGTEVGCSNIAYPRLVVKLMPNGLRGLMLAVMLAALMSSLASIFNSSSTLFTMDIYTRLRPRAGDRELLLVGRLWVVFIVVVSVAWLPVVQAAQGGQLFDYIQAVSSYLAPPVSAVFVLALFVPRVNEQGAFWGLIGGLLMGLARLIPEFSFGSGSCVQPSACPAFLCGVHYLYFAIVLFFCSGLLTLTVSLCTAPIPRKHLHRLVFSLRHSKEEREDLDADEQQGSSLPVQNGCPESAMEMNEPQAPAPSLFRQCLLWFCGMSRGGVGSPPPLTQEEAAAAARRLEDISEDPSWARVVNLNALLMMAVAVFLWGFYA
As to the kind of experiment: Whole-cell patch clamp glucose current, binding and dissociation, CHO-SGLT2. The format is cell-based. Particulars: for Dissociation degree T1/2, off (s), SGLT2: washout. How it is done: as §1, §2, §3, §4, §5, §6, §7, §8, §9, §10, §11

As for `OC[C@H]1O[C@@H](c2cc(Cc3ccc(C4CC4)cc3)c(Cl)c3c2CCO3)[C@H](O)[C@@H](O)[C@@H]1O` [Enavogliflozin, (2S,3R,4R,5S,6R)-2-(7-chloro-6 (4-cyclopropylbenzyl)-2,3-dihydrobenzofuran-4-yl)-6-(hydroxymethyl)tetrahydro-2H-pyran-3,4,5-triol], in test [1] (treatment concentration 5 μM), the “Binding affinity T1/2, on (s), SGLT1” value is recorded as 11.5 ± 4.2 s and the “Dissociation degree T1/2, off (s), SGLT1” value amounted to 34.9 ± 9.6 s. In addition, in test [1] (treatment concentration 5 μM, listed as enavogliflozin), the “Dissociation degree T1/2, off (s), SGLT1” value is given as 34.9 s. In addition, the “Dissociation from SGLT2, times slower than dapagliflozin” value in test [2] (ratio of T1/2,off) is given as “about 2.8 times”. In test [2] (treatment concentration 100 μM), the “Binding affinity T1/2, on (s), SGLT2” value came out at 29.5 ± 5.5 s and the “Dissociation degree T1/2, off (s), SGLT2” value is 745.5^+, # s. Moreover, the “Dissociation degree T1/2, off (s), SGLT2” value in test [2] (treatment concentration 100 μM, listed as enavogliflozin) is 745.5 s.

On to `OC[C@H]1O[C@@H](c2cc(Cc3ccc(C4CC4)cc3)c(Cl)c3c2CC(O)O3)[C@H](O)[C@@H](O)[C@@H]1O` (stereo partly drawn) [M1, (2S,3R,4R,5S,6R)-2-(7-chloro-6-(4-cyclopropylbenzyl)-2-hydroxy-2,3-dihydrobenzofuran-4-yl)-6-(hydroxymethyl)tetrahydro-2H-pyran-3,4,5-triol], for which, in test [1] (ratio of T1/2,off), the “Dissociation from SGLT1, times slower than dapagliflozin” value is recorded as 1.96 times and the “Dissociation from SGLT1, times slower than enavogliflozin” value stood at 1.7 times. Also, in test [1] (treatment concentration 5 μM), the “Binding affinity T1/2, on (s), SGLT1” value is 18.8 ± 4.1 s; the “Dissociation degree T1/2, off (s), SGLT1” value is 59.8 s and 59.8 ± 11.5*^, + s. Moreover, in test [2] (ratio of T1/2,off), the “Dissociation rate from SGLT2, times slower than enavogliflozin” value is 2 times. Moreover, in test [2] (treatment concentration 200 μM), the “Binding affinity T1/2, on (s), SGLT2” value was 52.5 ± 3.8*^, + s; the “Dissociation degree T1/2, off (s), SGLT2” value was 369.9 s and 369.9 ± 56.5 ^ s.

With `OC[C@H]1O[C@@H](c2cc(Cc3ccc(C4(O)CC4)cc3)c(Cl)c3c2CCO3)[C@H](O)[C@@H](O)[C@@H]1O` [M2, (2S,3R,4R,5S,6R)-2-(7-chloro-6-(4-(1-hydroxycyclopropyl)benzyl)-2,3-dihydrobenzofuran-4-yl)-6-(hydroxymethyl)tetrahydro-2H-pyran-3,4,5-triol], in test [1] (treatment concentration 20 μM), the “Binding affinity T1/2, on (s), SGLT1” value is reported as 15.7 ± 6.5 s; the “Dissociation degree T1/2, off (s), SGLT1” value is 23.5 s and 23.5 ± 10.4 s. The “Dissociation rate from SGLT2, times slower than enavogliflozin” value in test [2] (ratio of T1/2,off) is listed as 1.38 times. Besides, in test [2] (treatment concentration 200 μM), the “Binding affinity T1/2, on (s), SGLT2” value was 51.8 ± 10.5*^, + s; the “Dissociation degree T1/2, off (s), SGLT2” value is 540.4 s and 540.4 ± 217.0^+, # s.
